This experiment has as its target T1, full-length beta-Catenin (Uniprot ID P35222) (Homo sapiens, UniProt P35222).
T1 construct: 10 nM full-length beta-Catenin (Uniprot ID P35222)
T1 sequence (P35222 1-781): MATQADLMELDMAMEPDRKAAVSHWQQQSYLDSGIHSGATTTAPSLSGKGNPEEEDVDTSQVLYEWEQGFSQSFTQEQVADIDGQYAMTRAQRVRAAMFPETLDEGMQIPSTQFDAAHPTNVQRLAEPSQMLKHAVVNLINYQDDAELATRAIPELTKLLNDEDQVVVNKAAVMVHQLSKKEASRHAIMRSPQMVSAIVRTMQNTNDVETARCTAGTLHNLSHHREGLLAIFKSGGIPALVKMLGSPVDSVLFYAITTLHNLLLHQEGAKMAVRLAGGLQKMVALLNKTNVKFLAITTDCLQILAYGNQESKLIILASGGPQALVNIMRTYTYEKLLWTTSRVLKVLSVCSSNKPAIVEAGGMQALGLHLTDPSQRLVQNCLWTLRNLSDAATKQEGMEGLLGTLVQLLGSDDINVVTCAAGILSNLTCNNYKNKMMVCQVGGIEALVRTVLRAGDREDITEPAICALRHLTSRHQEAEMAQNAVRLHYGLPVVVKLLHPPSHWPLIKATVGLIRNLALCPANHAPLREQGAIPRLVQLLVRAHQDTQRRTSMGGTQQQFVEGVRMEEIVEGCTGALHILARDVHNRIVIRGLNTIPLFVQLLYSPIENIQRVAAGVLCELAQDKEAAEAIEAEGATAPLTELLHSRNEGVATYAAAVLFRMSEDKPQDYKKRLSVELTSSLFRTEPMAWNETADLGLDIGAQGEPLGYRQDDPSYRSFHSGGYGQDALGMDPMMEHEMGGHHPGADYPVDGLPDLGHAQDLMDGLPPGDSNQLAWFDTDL
Kind of experiment: Fluorescence polarization IC50 (beta-catenin / 5FAM-TCF4 10-53 competition). The experiment is classed as binding. The settings on record: fluorescence polarization; read-out: beta-Catenin FP IC50.

Take `CC(=O)N1CCC[C@]12CC=CCCCC1(CCCC=CCCCOC(=O)N3CC[C@@](C(=O)N[C@@H](Cc4ccccc4)C(=O)N[C@@H](Cc4csc5ccccc45)C(=O)N[C@@H](CCC(N)=O)C(N)=O)(C3)NC(=O)[C@H](CC(C)C)NC(=O)[C@H](CO)NC(=O)[C@H](C)NC(=O)[C@H](CCCCNC(C)C)NC(=O)[C@H]([C@@H](C)O)NC(=O)[C@H](CC(=O)O)NC1=O)NC(=O)[C@H](CC(C)(C)C)NC(=O)[C@H](CC(N)=O)NC2=O` (stereo partly drawn) [I-1597, Ac-PL3-Asn-Npg-B5-Asp-Thr-iPrLys-Ala-Ser-Leu-PyrS2-Phe-BztA-Gln-NH2]: the IC50 was determined as 6990 nM.

Take `CC(=O)N1CCC[C@]12CC=CCCCC1(CCCC=CCCCOC(=O)N3CC[C@@](C(=O)N[C@@H](Cc4ccccc4)C(=O)N[C@@H](Cc4csc5ccccc45)C(=O)N[C@@H](CCC(N)=O)C(N)=O)(C3)NC(=O)[C@H](Cc3ccccc3)NC(=O)[C@H](Cc3ccccc3)NC(=O)[C@H](C)NC(=O)[C@H](CCCCNC(C)C)NC(=O)[C@H]([C@@H](C)O)NC(=O)[C@H](CC(=O)O)NC1=O)NC(=O)[C@H](CC(C)(C)C)NC(=O)[C@H](CC(N)=O)NC2=O` (stereo partly drawn) [I-1599, Ac-PL3-Asn-Npg-B5-Asp-Thr-iPrLys-Ala-Phe-Phe-PyrS2-Phe-BztA-Gln-NH2]: the concentration for half-maximal inhibition (IC50) was 1080 nM.

Regarding `CC(=O)N1CCC[C@]12CC=CCCCC1(CCCC=CCCCOC(=O)N3CC[C@@](C(=O)N[C@@H](Cc4ccccc4)C(=O)N[C@@H](Cc4csc5ccccc45)C(=O)N[C@@H](CCC(N)=O)C(N)=O)(C3)NC(=O)[C@H](Cc3c[nH]c4ccccc34)NC(=O)[C@H](Cc3ccccc3)NC(=O)[C@H](C)NC(=O)[C@H](CCCCNC(C)C)NC(=O)[C@H]([C@@H](C)O)NC(=O)[C@H](CC(=O)O)NC1=O)NC(=O)[C@H](CC(C)(C)C)NC(=O)[C@H](CC(N)=O)NC2=O` (stereo partly drawn) [I-1600, Ac-PL3-Asn-Npg-B5-Asp-Thr-iPrLys-Ala-Phe-Trp-PyrS2-Phe-BztA-Gln-NH2], the IC50 is 4290 nM.

As for `CC(=O)N1CCC[C@]12CC=CCCCC1(CCCC=CCCCOC(=O)N3CC[C@@](C(=O)N[C@@H](Cc4ccccc4)C(=O)N[C@@H](Cc4csc5ccccc45)C(=O)N[C@@H](CCC(N)=O)C(N)=O)(C3)NC(=O)[C@H](CO)NC(=O)[C@H](Cc3ccccc3)NC(=O)[C@H](C)NC(=O)[C@H](CCCCNC(C)C)NC(=O)[C@H]([C@@H](C)O)NC(=O)[C@H](CC(=O)O)NC1=O)NC(=O)[C@H](CC(C)(C)C)NC(=O)[C@H](CC(N)=O)NC2=O` (stereo partly drawn) [I-1601, Ac-PL3-Asn-Npg-B5-Asp-Thr-iPrLys-Ala-Phe-Ser-PyrS2-Phe-BztA-Gln-NH2], the 50% inhibitory concentration (IC50) worked out at 2020 nM.

On to `CC(=O)N1CCC[C@]12CCCCCCC1(CCCCCCCCOC(=O)N3CC[C@@](C(=O)N[C@@H](Cc4ccccc4C(F)(F)F)C(=O)N[C@@H](Cc4csc5ccccc45)C(=O)N[C@@H](CCC(N)=O)C(N)=O)(C3)NC(=O)[C@H](CC(C)C)NC(=O)[C@H](Cc3ccccc3)NC(=O)[C@H](C)NC(=O)[C@H](C)NC(=O)[C@H](Cc3cccc(C(=O)O)c3)NC(=O)[C@H](CC(=O)O)NC1=O)NC(=O)[C@H](CC(C)(C)C)NC(=O)[C@H](CC(=O)O)NC2=O` (stereo partly drawn) [I-1604, Ac-PL3-Asp-Npg-B5-Asp-3COOHF-Ala-Ala-Phe-Leu-PyrS2-2F3MeF-BztA-Gln-NH2], for which the IC50 was 123 nM.

As to `CC(=O)N1CCC[C@]12CCCCCCC1(CCCCCCCCOC(=O)N3CC[C@@](C(=O)N[C@@H](Cc4ccsc4)C(=O)N[C@@H](Cc4csc5ccccc45)C(=O)N[C@@H](CCC(N)=O)C(N)=O)(C3)NC(=O)[C@H](CC(C)C)NC(=O)[C@H](Cc3ccccc3)NC(=O)[C@H](C)NC(=O)[C@H](C)NC(=O)[C@H](CN(CC(=O)O)CC(F)(F)F)NC(=O)[C@H](CC(=O)O)NC1=O)NC(=O)[C@H](CC(C)(C)C)NC(=O)[C@H](CC(=O)O)NC2=O` (stereo partly drawn) [I-1605, Ac-PL3-Asp-Npg-B5-Asp-TfeGA-Ala-Ala-Phe-Leu-PyrS2-3Thi-BztA-Gln-NH2], the half-maximal inhibitory concentration (IC50) came to 214 nM.

On to `CC(=O)N1CCC[C@]12CCCCCCC1(CCCCCCCCOC(=O)N3CC[C@@](C(=O)N[C@@H](Cc4ccccc4Cl)C(=O)N[C@@H](Cc4csc5ccccc45)C(=O)N[C@@H](CCC(N)=O)C(N)=O)(C3)NC(=O)[C@H]([C@@H](C)O)NC(=O)[C@H](Cc3ccccc3)NC(=O)[C@H](C)NC(=O)[C@H](C)NC(=O)[C@H](CN(CC(=O)O)CC(F)(F)F)NC(=O)[C@H](CC(=O)O)NC1=O)NC(=O)[C@H](CC(C)(C)C)NC(=O)[C@H](CC(=O)O)NC2=O` (stereo partly drawn) [I-1606, Ac-PL3-Asp-Npg-B5-Asp-TfeGA-Ala-Ala-Phe-Thr-PyrS2-2C1F-BztA-Gln-NH2], for which the 50% inhibitory concentration (IC50) is 107 nM.

Consider `CC(=O)N1CCC[C@]12CC=CCCCC1(CCCC=CCCCCCC[C@@](C)(C(=O)N[C@@H](Cc3ccsc3)C(=O)N[C@@H](Cc3csc4ccccc34)C(=O)N[C@@H](CCC(N)=O)C(N)=O)NC(=O)[C@H](CC(N)=O)NC(=O)[C@H](Cc3ccccc3)NC(=O)[C@H](C)NC(=O)[C@H](C)NC(=O)[C@H]([C@@H](C)O)NC(=O)[C@H](CC(N)=O)NC1=O)NC(=O)[C@H](CC(C)(C)C)NC(=O)[C@H](CC(=O)O)NC2=O` (stereo partly drawn) [I-1617, Ac-PL3-Asp-Npg-B5-Asn-Thr-Ala-Ala-Phe-Asn-S8-3Thi-BztA-Gln-NH2], for which the half-inhibitory concentration (IC50) is 759 nM.

On to `CCCC[C@@H]1NC(=O)[C@H](Cc2ccccc2)NC(=O)[C@H](C)NC(=O)[C@H](C)NC(=O)[C@H]([C@@H](C)O)NC(=O)[C@H](CC(N)=O)NC(=O)C2(CCCC=CCCCOC(=O)N3CC[C@@](C(=O)N[C@@H](Cc4ccsc4)C(=O)N[C@@H](Cc4csc5ccccc45)C(=O)N[C@@H](CCC(N)=O)C(N)=O)(C3)NC1=O)CCCC=CC[C@]1(CCCN1C(C)=O)C(=O)N[C@@H](CC(=O)O)C(=O)N[C@@H](CC(C)(C)C)C(=O)N2` (stereo partly drawn) [I-1619, Ac-PL3-Asp-Npg-B5-Asn-Thr-Ala-Ala-Phe-nLeu-PyrS2-3Thi-BztA-Gln-NH2], for which the half-inhibitory concentration (IC50) was found to be 1290 nM.

Consider `CC(=O)N1CCC[C@]12CC=CCCCC1(CCCC=CCCCOC(=O)N3CC[C@@](C(=O)N[C@@H](Cc4ccsc4)C(=O)N[C@@H](Cc4csc5ccccc45)C(=O)N[C@@H](CCC(N)=O)C(N)=O)(C3)NC(=O)[C@H](CCC(C)C)NC(=O)[C@H](Cc3ccccc3)NC(=O)[C@H](C)NC(=O)[C@H](C)NC(=O)[C@H]([C@@H](C)O)NC(=O)[C@H](CC(N)=O)NC1=O)NC(=O)[C@H](CC(C)(C)C)NC(=O)[C@H](CC(=O)O)NC2=O` (stereo partly drawn) [I-1620, Ac-PL3-Asp-Npg-B5-Asn-Thr-Ala-Ala-Phe-hLeu-PyrS2-3Thi-BztA-Gln-NH2], for which the IC50 was determined as 2060 nM.

Regarding `CC(=O)N1CCC[C@]12CC=CCCCC1(CCCC=CCCCOC(=O)N3CC[C@@](C(=O)N[C@@H](Cc4ccsc4)C(=O)N[C@@H](Cc4csc5ccccc45)C(=O)N[C@@H](CCC(N)=O)C(N)=O)(C3)NC(=O)[C@H]([C@@H](C)O)NC(=O)[C@H](Cc3ccccc3)NC(=O)[C@H](C)NC(=O)[C@H](C)NC(=O)[C@H]([C@@H](C)O)NC(=O)[C@H](CC(N)=O)NC1=O)NC(=O)[C@H](CC(C)(C)C)NC(=O)[C@H](CC(=O)O)NC2=O` (stereo partly drawn) [I-1621, Ac-PL3-Asp-Npg-B5-Asn-Thr-Ala-Ala-Phe-Thr-PyrS2-3Thi-BztA-Gln-NH2], the IC50 is 266 nM.

Take `CCC(C)N(CC(=O)O)C[C@@H]1NC(=O)[C@H](CC(=O)O)NC(=O)C2(CCCC=CCCCOC(=O)N3CC[C@@](C(=O)N[C@@H](Cc4ccccc4Cl)C(=O)N[C@@H](Cc4csc5ccccc45)C(=O)N[C@@H](CCC(N)=O)C(N)=O)(C3)NC(=O)[C@H](CC(N)=O)NC(=O)[C@H](Cc3ccccc3)NC(=O)[C@H](C)NC(=O)[C@H](C)NC1=O)CCCC=CC[C@]1(CCCN1C(C)=O)C(=O)N[C@@H](CC(=O)O)C(=O)N[C@@H](CC(C)(C)C)C(=O)N2` (stereo partly drawn) [I-1623, Ac-PL3-Asp-Npg-B5-Asp-[sBu]GA-Ala-Ala-Phe-Asn-PyrS2-2C1F-BztA-Gln-NH2]: the IC50 worked out at 30 nM.

As to `CC(=O)N1CCC[C@]12CC=CCCCC1(CCCC=CCCCCCC[C@@](C)(C(=O)N[C@@H](Cc3ccsc3)C(=O)N[C@@H](Cc3csc4ccccc34)C(=O)N[C@@H](CCC(N)=O)C(N)=O)NC(=O)[C@H](CC(N)=O)NC(=O)[C@H](Cc3ccccc3)NC(=O)[C@H](C)NC(=O)[C@H](C)NC(=O)[C@H](CN(CC(=O)O)Cc3c(F)c(F)c(F)c(F)c3F)NC(=O)[C@H](CC(=O)O)NC1=O)NC(=O)[C@H](CC(C)(C)C)NC(=O)[C@H](CC(=O)O)NC2=O` (stereo partly drawn) [I-1624, Ac-PL3-Asp-Npg-B5-Asp-[Pfbn]GA-Ala-Ala-Phe-Asn-S8-3Thi-BztA-Gln-NH2], the IC50 turned out to be 47.5 nM.

As to `CCC(C)N(CC(=O)O)C[C@@H]1NC(=O)[C@H](CC(=O)O)NC(=O)C2(CCCC=CCCCCCC[C@@](C)(C(=O)N[C@@H](Cc3ccsc3)C(=O)N[C@@H](Cc3csc4ccccc34)C(=O)N[C@@H](CCC(N)=O)C(N)=O)NC(=O)[C@H](CC(N)=O)NC(=O)[C@H](Cc3ccccc3)NC(=O)[C@H](C)NC(=O)[C@H](C)NC1=O)CCCC=CC[C@]1(CCCN1C(C)=O)C(=O)N[C@@H](CC(=O)O)C(=O)N[C@@H](CC(C)(C)C)C(=O)N2` (stereo partly drawn) [I-1626, Ac-PL3-Asp-Npg-B5-Asp-[sBu]GA-Ala-Ala-Phe-Asn-S8-3Thi-BztA-Gln-NH2], the half-maximal inhibitory concentration (IC50) was 721 nM.
